Source: US6812229B1, “Carbamate derivative and agricultural/horticultural fungicide” (Kumiai Chemical Industry Co., Ltd., priority 1999, dated 2004)

System: Septoria nodorum
Test: Test for preventive effect on Septoria leaf blotch of wheat
Type: in vivo
Conditions: wheat seedlings (Norin-61-go), two-leaf stage, 50 ppm active ingredient, 10 ml per pot, evaluated 10 days after inoculation with Septoria nodorum
Description: [table] 10 Wheat seeds (variety: Norin-61-go) were sown in each plastic pot having a diameter of 6 cm, and grown in a greenhouse. […] Then, the seedlings were inoculated with Septoria nodorum […] controlled in a greenhouse. 10 Days after the inoculation, the total diseased area of the first leaves in each pot was observed and evaluated on the basis of the standards shown in Table 21.

Structure (SMILES) | Evaluation (total diseased area of the first leaves)
COC(=O)NCc1cc(C(C)=NOC(C)c2cccc(C)c2)ccc1Cl (stereo not drawn) [A-407] | A (No diseased area)
COC(=O)NCc1cc(C(C)=NOCC2OCCO2)ccc1Cl [A-241] | B (Diseased area of less than 5%)
COC(=O)NCc1cc(C(C)=NOCc2ccccc2)ccc1F [A-323] | A (No diseased area)
COC(=O)NCc1cc(C(C)=NOCc2cc(C)ccn2)ccc1Cl [A-370] | A (No diseased area)
COC(=O)NCc1cc(C(C)=NOCC=Cc2ccccc2)ccc1Cl [A-201] | A (No diseased area)
COC(=O)NCc1cc(C(C)=NOCc2cccc(C(F)(F)F)c2)ccc1F [A-375] | B (Diseased area of less than 5%)
CCC(=NOCc1ccccc1C(F)(F)F)c1ccc(Cl)c(CNC(=O)OC)c1 [A-297] | B (Diseased area of less than 5%)
COC(=O)NCc1cc(C(C)=NOCc2cccc(Cl)c2Cl)ccc1Cl [A-252] | A (No diseased area)
COC(=O)NCc1cc(C(C)=NOCc2ccccc2Cl)ccc1Cl [A-207] | A (No diseased area)
COC(=O)NCc1cc(C(C)=NOCc2ccccn2)ccc1C [A-333] | A (No diseased area)
COC(=O)NCc1cc(C(C)=NOCc2ccc(Cl)cc2)ccc1F [A-372] | A (No diseased area)
COC(=O)NCc1cc(C(C)=NOCc2ccc(OC)cc2)ccc1Cl [A-95] | A (No diseased area)
COC(=O)NCc1cc(C(C)=NOCc2ccccc2C#N)ccc1F [A-377] | A (No diseased area)
COC(=O)NCc1cc(C(C)=NOCc2ccc3ccccc3c2)ccc1Cl [A-248] | B (Diseased area of less than 5%)
COC(=O)NCc1cc(C(C)=NOCc2ccccc2OC(F)(F)F)ccc1Cl [A-217] | A (No diseased area)
COC(=O)NCc1cc(C(C)=NOCc2cccc(C#N)c2)ccc1F [A-428] | A (No diseased area)
CCOc1cccc(CON=C(C)c2ccc(Cl)c(CNC(=O)OC)c2)n1 [A-418] | A (No diseased area)
COC(=O)NCc1cc(C(C)=NOCc2ccccc2F)ccc1F [A-324] | A (No diseased area)
COC(=O)NCc1cc(C(=NOCc2ccccn2)C2CC2)ccc1Cl [A-405] | A (No diseased area)
COC(=O)NCc1cccc(C(C)=NOCc2cc(Cl)ccc2Cl)c1 [A-388] | A (No diseased area)
COC(=O)NCc1cc(C=NOCc2ccc(Cl)cc2)ccc1Cl [A-438] | B (Diseased area of less than 5%)
COC(=O)NCc1cccc(C(C)=NOCc2ccc(F)cc2)c1 [A-400] | B (Diseased area of less than 5%)

Structure (SMILES) | Evaluation (total diseased area of the first leaves)
COC(=O)NCc1cc(C(C)=NOCc2ccc(C)cc2)ccc1F [A-374] | A (No diseased area)
COC(=O)NCc1cc(C(C)=NOCc2ccccc2C(F)(F)F)ccc1C [A-314] | A (No diseased area)
COC(=O)NCc1cccc(C(C)=NOCc2ccc(Cl)cc2Cl)c1 [A-387] | B (Diseased area of less than 5%)
COC(=O)NCc1cc(C(C)=NOCc2cccc(C#N)c2)ccc1Cl [A-102] | A (No diseased area)
CCC(=NOCc1ccccc1)c1ccc(Cl)c(CNC(=O)OC)c1 [A-303] | A (No diseased area)
COC(=O)NCc1cc(C(C)=NOCc2nc(C)cc(C)n2)ccc1Cl [A-413] | A (No diseased area)
COC(=O)NCc1cc(C(C)=NOCc2cccc(Cl)c2)ccc1Cl [A-208] | B (Diseased area of less than 5%)
COC(=O)NCc1cc(C(C)=NOC(C)c2ccc(Cl)cc2)ccc1Cl (stereo not drawn) [A-311] | A (No diseased area)
COC(=O)NCc1cccc(C(C)=NOCc2cccc(Cl)c2)c1 [A-339] | A (No diseased area)
COC(=O)NCc1cc(C(C)=NOCc2ccccc2C#N)ccc1Cl [A-220] | A (No diseased area)
COC(=O)NCc1cc(C(C)=NOCC2CCCO2)ccc1Cl (stereo not drawn) [A-443] | B (Diseased area of less than 5%)
COC(=O)NCc1cccc(C(C)=NOCc2ccccc2C)c1 [A-343] | A (No diseased area)
COC(=O)NCc1cc(C(C)=NOCc2cccc(C)c2)ccc1F [A-373] | A (No diseased area)
COC(=O)NCc1cc(C(C)=NOCc2ccccc2C(F)(F)F)ccc1F [A-328] | A (No diseased area)
COC(=O)NCc1cccc(C(C)=NOCc2cccc(Cl)c2Cl)c1 [A-386] | B (Diseased area of less than 5%)
COC(=O)NCc1cc(C(C)=NOCc2cccc(C(F)(F)F)c2)cc(C)c1Cl [A-159] | A (No diseased area)
COC(=O)NCc1cc(C(C)=NOC(C)c2ccccc2Cl)ccc1Cl (stereo not drawn) [A-309] | B (Diseased area of less than 5%)
COC(=O)NCc1cc(C(C)=NOCc2ccccc2Cl)ccc1C [A-294] | B (Diseased area of less than 5%)
COC(=O)NCc1cc(C(C)=NOC(C)c2ccc(Cl)cc2)ccc1F (stereo not drawn) [A-380] | A (No diseased area)
CCON=C(CC)c1ccc(Cl)c(CNC(=O)OC)c1 [A-111] | A (No diseased area)
COC(=O)NCc1cc(C(C)=NOCc2cc(Cl)ccc2Cl)ccc1Cl [A-254] | A (No diseased area)
COC(=O)NCc1cc(C(C)=NOC(C)c2cccc(Cl)c2)ccc1Cl (stereo not drawn) [A-310] | A (No diseased area)

Structure (SMILES) | Evaluation (total diseased area of the first leaves)
COC(=O)NCc1cc(C(C)=NOCc2cccc(OC)n2)ccc1Cl [A-417] | A (No diseased area)
COC(=O)NCc1cc(C(C)=NOC(C)c2cccc(C(F)(F)F)c2)ccc1Cl (stereo not drawn) [A-313] | A (No diseased area)
COC(=O)NCc1cc(C(C)=NOCC2CC2)ccc1Cl [A-56] | B (Diseased area of less than 5%)
COC(=O)NCc1cc(C(C)=NOCc2ccc(C)cc2)ccc1C [A-363] | A (No diseased area)
COC(=O)NCc1cc(C(C)=NOc2ccccc2)ccc1Cl [A-73] | A (No diseased area)
COC(=O)NCc1cc(C(C)=NOCc2cccc(OC(F)(F)F)c2)ccc1Cl [A-218] | A (No diseased area)
COC(=O)NCc1cc(C(C)=NOCC=C(Cl)Cl)ccc1Cl [A-185] | A (No diseased area)
CCCCON=C(C)c1ccc(Cl)c(CNC(=O)OC)c1 [A-52] | A (No diseased area)
COC(=O)NCc1cccc(C(C)=NOc2cccc(Cl)c2C#N)c1 [A-385] | B (Diseased area of less than 5%)
COC(=O)NCc1cc(C(C)=NOCc2cccs2)ccc1Cl [A-415] | A (No diseased area)
COC(=O)NCc1cc(C(C)=NOCc2ccc(C(F)(F)F)cc2)cc(C)c1Cl [A-160] | B (Diseased area of less than 5%)
COC(=O)NCc1c(Cl)c(Cl)c(Cl)c(C(C)=NOCc2ccccc2)c1Cl [A-382] | B (Diseased area of less than 5%)
COC(=O)NCc1cc(C(C)=NOCc2cccc(C)n2)ccc1F [A-430] | A (No diseased area)
COC(=O)NCc1cc(C(=NOCc2ccccc2Cl)C2CC2)ccc1Cl [A-341] | A (No diseased area)
COC(=O)NCc1cc(C(C)=NOCc2ccccc2)ccc1Cl [A-206] | B (Diseased area of less than 5%)
COC(=O)NCc1cc(C(C)=NOC(C)c2ccccc2Cl)ccc1F (stereo not drawn) [A-378] | A (No diseased area)
COC(=O)NCc1cc(C(C)=NOCc2ccc(OC)cc2)cc(C)c1Cl [A-158] | A (No diseased area)
COC(=O)NCc1cc(C(C)=NOCc2ccccc2C)ccc1F [A-327] | A (No diseased area)
COC(=O)NCc1cc(C(C)=NOCc2ccc(Cl)cc2)ccc1C [A-365] | B (Diseased area of less than 5%)
COC(=O)NCc1cc(C(C)=NOCc2ccccc2Cl)cc(C)c1C [A-358] | A (No diseased area)
COC(=O)NCc1cc(C(C)=NOCc2ccccc2Br)ccc1F [A-326] | A (No diseased area)
COC(=O)NCc1cc(C(C)=NOCc2ccc3ccccc3n2)ccc1F [A-440] | B (Diseased area of less than 5%)
